The source of these data is PMC9897788, “Design, synthesis and cytotoxic evaluation of novel bis-thiazole derivatives as preferential Pim1 kinase inhibitors with in vivo and in silico study” (Journal of Enzyme Inhibition and Medicinal Chemistry, 2023).

Common to all, as to assay: NCI 60 cell one-dose screening (SRB)
What all share (assay type): cell-based

The test system of one experiment is MDA-MB-468. As to conditions: Homo sapiens; MDA-MB-468, Breast Cancer; single dose 10 µM, 48 h; read-out: Percentage of cellular growth inhibition. As for the experimental part: (§1) The 60 cancerous cell panel screening was performed following the Developmental Therapeutics Program (DTP) of the National Cancer Institute (NIH-NCI), USA. A single dose of 10 µM was used to perform the screening at 48 h incubation and the results were achieved as cancerous cell growth percentage relative to the no-drug control that was converted to an inhibition percentage by subtracting from 100.The cancerous cell lines were grown in RPMI 1640 medium containing 5% foetal bovine serum and 2 mM L-glutamine at 37 °C, 5% CO2, 95% air and 100% relative humidity for 24 h prior to addition of the tested compounds. After 24 h, two plates of each cell line were fixed in situ with TCA to represent a measurement of the cell population for each cell line at the time of drug addition (Tz). Compounds were dissolved in DMSO at 400-fold the desired final maximum test concentration and stored frozen prior to use. At the time of drug addition, an aliquot of frozen concentrate was thawed and diluted to twice the desired final maximum test concentration with complete medium containing 50 µg/mL gentamicin. Aliquots of 100 µL of the compounds dilution was added to the appropriate micro titre wells already containing 100 µL of medium, resulting in the required final drug concentrations of 10 µM. Following compounds addition, the plates were incubated for an additional 48 h at 37 °C, 5% CO2, 95% air, and 100% relative humidity. For adherent cells, the assay was terminated by the addition of cold TCA. Cells were fixed in situ by the gentle addition of 50 µL of cold 50% (w/v) TCA (final concentration, 10% TCA) and incubated for 60 min at 4 °C. The supernatant was discarded, and the plates were washed five times with tap water and air dried. Sulphorhodamine B (SRB) solution (100 µL) at 0.4% (w/v) in 1% acetic acid is added to each well, and plates are incubated for 10 min at room temperature. After staining, unbound dye was removed by washing five times with 1% acetic acid and the plates were air dried. Bound stain was subsequently solubilised with 10 mM trizma base, and the absorbance was read on an automated plate reader at a wavelength of 515 nm. For suspension cells, the methodology was the same except that the assay was terminated by fixing settled cells at the bottom of the wells by gently adding 50 µL of 80% TCA (final concentration, 16% TCA). Using the seven absorbance measurements [time zero, (Tz), control growth, I, and test growth in the presence of drug at the five concentration levels (Ti)], the percentage growth was calculated as: [(Ti−Tz)/(C−Tz)]×100 for concentrations for which Ti>/=Tz [(Ti−Tz)/Tz]×100 for concentrations for which Ti<Tz.

Another experiment deals with HT29. As to conditions: Homo sapiens, HT-29; HT29, Colon Cancer; single dose 10 µM, 48 h; read-out: Percentage of cellular growth inhibition. As for the experimental part:
as §1

Another experiment has as its system HOP-62. As to conditions: Homo sapiens; HOP-62, Non-Small Cell Lung Cancer; single dose 10 µM, 48 h; read-out: Percentage of cellular growth inhibition. As for the experimental part: as §1
The subject of the next experiment is KM12. Conditions: Homo sapiens; KM12, Colon Cancer; single dose 10 µM, 48 h; read-out: Percentage of cellular growth inhibition. As for the experimental part: as §1
In another experiment the test system is MOLT-4. Conditions: Homo sapiens; MOLT-4, Leukemia; single dose 10 µM, 48 h; read-out: Percentage of cellular growth inhibition. As for the experimental part:
as §1

Another experiment concerns RPMI-8226. As to conditions: Homo sapiens; RPMI-8226, Leukemia; single dose 10 µM, 48 h; read-out: Percentage of cellular growth inhibition. As for the experimental part: as §1
A further experiment relates to EKVX. As to conditions: Homo sapiens, Non-Small Cell Lung Cancer, single dose 10 µM, 48 h, read-out: Percentage of cellular growth inhibition. As for the experimental part: as §1
The subject of a further experiment is OVCAR-8. As to conditions: Homo sapiens; OVCAR-8, Ovarian Cancer; single dose 10 µM, 48 h; read-out: Percentage of cellular growth inhibition. As for the experimental part: as §1
The subject of another experiment is SNB-75. As to conditions: Homo sapiens; SNB-75, CNS Cancer; single dose 10 µM, 48 h; read-out: Percentage of cellular growth inhibition. As for the experimental part: as §1
For the next experiment, the system named is SK-MEL-5. As to conditions: Homo sapiens; SK-MEL-5, Melanoma; single dose 10 µM, 48 h; read-out: Percentage of cellular growth inhibition. As for the experimental part:
as §1

For another experiment, the system named is CCRF-CEM. As to conditions: Homo sapiens, Leukemia, single dose 10 µM, 48 h, read-out: Percentage of cellular growth inhibition. As for the experimental part: as §1
The next experiment has as its system 786-0. As to conditions: Homo sapiens; 786-0, Renal Cancer; single dose 10 µM, 48 h; read-out: Percentage of cellular growth inhibition. As for the experimental part: as §1
A further experiment deals with SF-268. Conditions: Homo sapiens; SF-268, CNS Cancer; single dose 10 µM, 48 h; read-out: Percentage of cellular growth inhibition. As for the experimental part: as §1
Another experiment deals with NCI-H226. As to conditions: Homo sapiens; NCI-H226, Non-Small Cell Lung Cancer; single dose 10 µM, 48 h; read-out: Percentage of cellular growth inhibition. As for the experimental part:
as §1

The test system of another experiment is HS 578T. As to conditions: Homo sapiens, Breast Cancer, single dose 10 µM, 48 h, read-out: Percentage of cellular growth inhibition. As for the experimental part: as §1
A further experiment has as its system SF-539. Conditions: Homo sapiens; SF-539, CNS Cancer; single dose 10 µM, 48 h; read-out: Percentage of cellular growth inhibition. As for the experimental part:
as §1

The test system of the next experiment is COLO 205. As to conditions: Homo sapiens; COLO 205, Colon Cancer; single dose 10 µM, 48 h; read-out: Percentage of cellular growth inhibition. As for the experimental part:
as §1

Another experiment relates to NCI-H322M. Conditions: Homo sapiens, Non-Small Cell Lung Cancer, single dose 10 µM, 48 h, read-out: Percentage of cellular growth inhibition. As for the experimental part: as §1
The test system of the next experiment is RXF 393. Conditions: Homo sapiens; RXF 393, Renal Cancer; single dose 10 µM, 48 h; read-out: Percentage of cellular growth inhibition. As for the experimental part:
as §1

A further experiment has as its system HL-60(TB). As to conditions: Homo sapiens, Leukemia, single dose 10 µM, 48 h, read-out: Percentage of cellular growth inhibition. As for the experimental part: as §1
In the next experiment the test system is UO-31. As to conditions: Homo sapiens; UO-31, Renal Cancer; single dose 10 µM, 48 h; read-out: Percentage of cellular growth inhibition. As for the experimental part: as §1

Regarding `NC(=S)Nc1cccc(NC(N)=S)c1` [compound 2, 1,1′-(1,3-phenylene)bis(thiourea)], the inhibition at 10 µM in the experiment on MDA-MB-468 is 13.5%; in the experiment on HT29 it was -13.3%; in the experiment with HOP-62 it was -19.5%; with KM12, 12.4%; with MOLT-4 it was 10.3%; in the experiment with RPMI-8226, -9.5%. Further, the inhibition at 10 µM in the experiment on EKVX is -1.3%; in the experiment with OVCAR-8 it was 6%; in the experiment with SNB-75, 2.4%; in the experiment with SK-MEL-5 it was 8.6%; in the experiment with CCRF-CEM it was 3.6%; in the experiment on 786-0 it was -7.8%. Moreover, the inhibition at 10 µM is 9.1% in the experiment with SF-268; 1.9% in the experiment with NCI-H226; -5% in the experiment on HS 578T; -0.5% in the experiment on SF-539; -36.7% with COLO 205; 11.7% in the experiment on NCI-H322M. In addition, the inhibition at 10 µM with RXF 393 was -3.8%; in the experiment with HL-60(TB), 0.9%; with UO-31 it was 30%.

Regarding `S=C(Nc1ccccc1)Nc1cccc(NC(=S)Nc2ccccc2)c1` [compound 7, 1,1′-(1,3-phenylene)bis(3-phenylthiourea)], the inhibition at 10 µM with MDA-MB-468 is -8.4%; with HT29, -26.3%; in the experiment on HOP-62 it was -18.9%; with KM12, 1%; in the experiment on MOLT-4 it was -5.8%; in the experiment with RPMI-8226 it was -19.2%. Further, the inhibition at 10 µM in the experiment on EKVX is 2.5%; in the experiment on OVCAR-8, 4%; in the experiment with SNB-75, 7.9%; in the experiment with SK-MEL-5, 1.5%; in the experiment on CCRF-CEM it was 56.8%; in the experiment on 786-0, -13.4%. Further, the inhibition at 10 µM in the experiment with SF-268 is 3.3%; with NCI-H226 it was -6.2%; in the experiment on HS 578T, 3.9%; in the experiment with SF-539, -11.5%; in the experiment on COLO 205 it was -37.6%; with NCI-H322M, 2.6%. Moreover, the figures for the inhibition at 10 µM in the experiment on RXF 393, in the experiment on HL-60(TB) and with UO-31 were -16.6%, -2.5% and 14.6%, respectively.

`CCOc1ccc(/N=N/c2sc(Nc3cccc(Nc4nc(C)c(/N=N/c5ccc(OCC)cc5)s4)c3)nc2C)cc1` [5b, N^1,N^3-bis(5-((4-ethoxyphenyl)diazinyl)-4-methylthiazol-2-yl)benzene-1,3-diamine]: the inhibition at 10 µM with MDA-MB-468 is 4.3%; in the experiment with HT29, 0.2%; with HOP-62 it was -1.3%; in the experiment with KM12, -0.8%; with MOLT-4, -2.2%; in the experiment with RPMI-8226 it was -7.2%. Moreover, the inhibition at 10 µM is 6.5% in the experiment on EKVX; -4% with OVCAR-8; 7.8% in the experiment on SNB-75; 0.8% in the experiment on SK-MEL-5; -13.9% in the experiment on CCRF-CEM; 6.6% with 786-0. Also, the inhibition at 10 µM is 4.5% in the experiment with SF-268; 14.8% in the experiment on NCI-H226; 2.2% with HS 578T; 0.1% with SF-539; -5.1% in the experiment with COLO 205; 11.4% with NCI-H322M. The inhibition at 10 µM with RXF 393 is 1%; in the experiment with HL-60(TB), 8.9%; with UO-31, 12.4%.

Turning to `Clc1ccc(-c2csc(Nc3cccc(Nc4nc(-c5ccc(Cl)cc5)cs4)c3)n2)cc1` [6c, N^1,N^3-bis(4–(4-chlorophenyl)thiazol-2-yl)benzene-1,3-diamine], the inhibition at 10 µM is 13.4% in the experiment on MDA-MB-468; -10.5% in the experiment on HT29; 17.7% with HOP-62; -1.4% in the experiment on KM12; 25.4% with MOLT-4; 14.8% in the experiment with RPMI-8226. Moreover, the inhibition at 10 µM in the experiment with EKVX amounted to 12.4%; with OVCAR-8, 7.7%; in the experiment on SNB-75 it was 22.5%; in the experiment on SK-MEL-5, 2.9%; in the experiment on CCRF-CEM, 10.4%; with 786-0 it was 29.2%. Also, the inhibition at 10 µM in the experiment on SF-268 is 22.6%; in the experiment with NCI-H226, 27.2%; in the experiment on HS 578T, 29.5%; in the experiment on SF-539 it was 13.9%; with COLO 205 it was -7.3%; in the experiment on NCI-H322M, 5%. Besides, the inhibition at 10 µM with RXF 393 came to 16.7%; in the experiment with HL-60(TB) it was 14.6%; with UO-31, 21.6%.

`Fc1ccc(-c2cs/c(=N\c3ccccc3)n2-c2cccc(-n3c(-c4ccc(F)cc4)cs/c3=N\c3ccccc3)c2)cc1` [8b, N,N’-(3,3’-(1,3-phenylene)bis(4–(4-fluorophenyl)thiazole-3(3H)-yl-2(3H)-ylidene))dianiline]: the inhibition at 10 µM was 51.2% in the experiment on MDA-MB-468; 9.9% in the experiment on HT29; -4.6% in the experiment on HOP-62; 12.8% with KM12; 50.1% in the experiment with MOLT-4; 24.2% in the experiment with RPMI-8226. The inhibition at 10 µM in the experiment on EKVX was determined as 19.5%; with OVCAR-8, 12.4%; in the experiment with SNB-75, 15.4%; in the experiment with SK-MEL-5, 9.3%; with CCRF-CEM, 35.2%; in the experiment with 786-0 it was 4.2%. The inhibition at 10 µM in the experiment on SF-268 is 8.7%; in the experiment with NCI-H226, 23.5%; in the experiment with HS 578T it was 13.4%; with SF-539, -0.9%; with COLO 205 it was -0.4%; with NCI-H322M it was 15.2%. In addition, the inhibition at 10 µM was 11.6% in the experiment with RXF 393, 15.8% in the experiment with HL-60(TB) and 26.3% in the experiment on UO-31.

The inhibition is the drop in the measured response relative to a control, in per cent.
